Test results taken from ChEMBL document CHEMBL1157738, “Simocyclinone D8 turns on against Gram-negative bacteria in a clinical setting” (2010).
≈ marks a conversion by molar mass, not a printed value.

Key:
Escherichia coli [1] = experiment: Antibacterial activity against Escherichia coli isolate 41 assessed as residual bacterial survival at 50 mg/L after 24 hrs by twofold serial dilution method; format: functional; settings: isolate 41, 24 h
Escherichia coli [2] = experiment: Antibacterial activity against Escherichia coli isolate 24 after 24 hrs by twofold serial dilution method; format: functional
Escherichia coli [3] = experiment: Antibacterial activity against Escherichia coli JM110 assessed as residual bacterial survival at 50 mg/L after 24 hrs by twofold serial dilution method; format: functional; settings: JM110, 24 h
Escherichia coli [4] = experiment: Antibacterial activity against Escherichia coli isolate 24 assessed as drug uptake relative to total amount drug treated; format: functional, organism-based
Escherichia coli [5] = experiment: Antibacterial activity against Escherichia coli isolate 50 expressing qnr B19 gene after 24 hrs by twofold serial dilution method; format: functional
Escherichia coli [6] = experiment: Antibacterial activity against Escherichia coli isolate 47 expressing qnr B19 gene assessed as residual bacterial survival at 50 mg/L after 24 hrs by twofold serial dilution method; format: functional; settings: isolate 47, 24 h
Escherichia coli [7] = experiment: Antibacterial activity against Escherichia coli isolate 7 assessed as residual bacterial survival at 50 mg/L after 24 hrs by twofold serial dilution method; format: functional; settings: isolate 7, 24 h
Klebsiella pneumoniae [8] = experiment: Antibacterial activity against Klebsiella pneumoniae isolate 370 expressing qnr B19 gene, GyrA D87G mutant assessed as residual bacterial survival at 50 mg/L after 24 hrs by twofold serial dilution method; format: functional; settings: isolate 370, 24 h
Escherichia coli [9] = experiment: Antibacterial activity against Escherichia coli XL-1Blue assessed as residual bacterial survival at 50 mg/L after 24 hrs by twofold serial dilution method; format: functional
Klebsiella pneumoniae [10] = experiment: Antibacterial activity against Klebsiella pneumoniae isolate 92 after 24 hrs by twofold serial dilution method; format: functional
Klebsiella pneumoniae [11] = experiment: Antibacterial activity against Klebsiella pneumoniae isolate 204 expressing qnr B19 gene assessed as residual bacterial survival at 50 mg/L after 24 hrs by twofold serial dilution method; format: functional; settings: isolate 204, 24 h
Escherichia coli [12] = experiment: Antibacterial activity against Escherichia coli Top10 after 24 hrs by twofold serial dilution method; format: functional
Klebsiella pneumoniae [13] = experiment: Antimicrobial activity against Klebsiella pneumoniae isolate 92 assessed as drug uptake; format: functional, organism-based
Klebsiella pneumoniae [14] = experiment: Antibacterial activity against Klebsiella pneumoniae isolate 97 assessed as drug uptake relative to total amount drug treated; format: functional, organism-based
Escherichia coli [15] = experiment: Antibacterial activity against Escherichia coli isolate 13 after 24 hrs by twofold serial dilution method; format: functional
Escherichia coli [16] = experiment: Antibacterial activity against Escherichia coli isolate 41 after 24 hrs by twofold serial dilution method; format: functional
Klebsiella pneumoniae [17] = experiment: Antibacterial activity against Klebsiella pneumoniae isolate 92 assessed as residual bacterial survival at 50 mg/L after 24 hrs by twofold serial dilution method; format: functional; settings: isolate 92, 24 h
Escherichia coli [18] = experiment: Antibacterial activity against Escherichia coli Top10 assessed as residual bacterial survival at 50 mg/L after 24 hrs by twofold serial dilution method; format: functional; settings: Top10, 24 h
Klebsiella pneumoniae [19] = experiment: Antibacterial activity against Klebsiella pneumoniae isolate 5 expressing qnr B19 gene, GyrA D87G mutant assessed as residual bacterial survival at 50 mg/L after 24 hrs by twofold serial dilution method; format: functional; settings: isolate 5, 24 h
Staphylococcus aureus = experiment: Antibacterial activity against Staphylococcus aureus assessed as residual bacterial survival at 50 mg/L after 24 hrs by twofold serial dilution method; format: functional
Escherichia coli [20] = experiment: Antibacterial activity against Escherichia coli isolate 9 expressing qnr B19 gene, GyrA D87G mutant assessed as residual bacterial survival at 50 mg/L after 24 hrs by twofold serial dilution method; format: functional; settings: isolate 9, 24 h
Klebsiella pneumoniae [21] = experiment: Antibacterial activity against Klebsiella pneumoniae isolate 172 expressing qnr B19 gene, GyrA D87G mutant assessed as residual bacterial survival at 50 mg/L after 24 hrs by twofold serial dilution method; format: functional; settings: isolate 172, 24 h
Escherichia coli [22] = experiment: Antibacterial activity against Escherichia coli isolate 191 expressing qnr S1 gene after 24 hrs by twofold serial dilution method; format: functional
Escherichia coli [23] = experiment: Antibacterial activity against Escherichia coli isolate 50 assessed as drug uptake; format: functional, organism-based
Escherichia coli [24] = experiment: Antibacterial activity against Escherichia coli isolate 24 assessed as drug uptake; format: functional, organism-based
Klebsiella pneumoniae [25] = experiment: Antibacterial activity against Klebsiella pneumoniae isolate 91 after 24 hrs by twofold serial dilution method; format: functional
Klebsiella pneumoniae [26] = experiment: Antibacterial activity against Klebsiella pneumoniae isolate 110 expressing qnr B19 gene, GyrA D87G mutant assessed as residual bacterial survival at 50 mg/L after 24 hrs by twofold serial dilution method; format: functional; settings: isolate 110, 24 h
Escherichia coli [27] = experiment: Antibacterial activity against Escherichia coli isolate 50 assessed as drug uptake relative to total amount drug treated; format: functional, organism-based
Klebsiella pneumoniae [28] = experiment: Antibacterial activity against Klebsiella pneumoniae isolate 328 expressing qnr B19 gene, GyrA D87G mutant assessed as residual bacterial survival at 50 mg/L after 24 hrs by twofold serial dilution method; format: functional; settings: isolate 328, 24 h
Escherichia coli [29] = experiment: Antibacterial activity against Escherichia coli HB101 assessed as residual bacterial survival at 50 mg/L after 24 hrs by twofold serial dilution method; format: functional; settings: HB101, 24 h
Escherichia coli [30] = experiment: Antibacterial activity against Escherichia coli isolate 32 assessed as residual bacterial survival at 50 mg/L after 24 hrs by twofold serial dilution method; format: functional; settings: isolate 32, 24 h
Escherichia coli [31] = experiment: Antibacterial activity against Escherichia coli isolate 7 after 24 hrs by twofold serial dilution method; format: functional
Klebsiella pneumoniae [32] = experiment: Antibacterial activity against Klebsiella pneumoniae isolate 134 assessed as residual bacterial survival at 50 mg/L after 24 hrs by twofold serial dilution method; format: functional; settings: isolate 134, 24 h
Escherichia coli [33] = experiment: Antibacterial activity against Escherichia coli isolate 95 expressing GyrA S83L mutant assessed as residual bacterial survival at 50 mg/L after 24 hrs by twofold serial dilution method; format: functional; settings: isolate 95, 24 h
Klebsiella pneumoniae [34] = experiment: Antibacterial activity against Klebsiella pneumoniae isolate 91 assessed as residual bacterial survival at 50 mg/L after 24 hrs by twofold serial dilution method; format: functional; settings: isolate 91, 24 h
Escherichia coli [35] = experiment: Antibacterial activity against Escherichia coli HB101 after 24 hrs by twofold serial dilution method; format: functional
Klebsiella pneumoniae [36] = experiment: Antimicrobial activity against Klebsiella pneumoniae isolate 97 assessed drug uptake; format: functional, organism-based
Klebsiella pneumoniae [37] = experiment: Antibacterial activity against Klebsiella pneumoniae isolate 134 after 24 hrs by twofold serial dilution method; format: functional
Klebsiella pneumoniae [38] = experiment: Antibacterial activity against Klebsiella pneumoniae isolate 97 expressing qnr B19 gene after 24 hrs by twofold serial dilution method; format: functional
Escherichia coli [39] = experiment: Antibacterial activity against Escherichia coli isolate 50 expressing qnr B19 gene assessed as residual bacterial survival at 50 mg/L after 24 hrs by twofold serial dilution method; format: functional; settings: isolate 50, 24 h
Klebsiella pneumoniae [40] = experiment: Antibacterial activity against Klebsiella pneumoniae isolate 173 after 24 hrs by twofold serial dilution method; format: functional
Escherichia coli [41] = experiment: Antibacterial activity against Escherichia coli Top10 assessed as drug uptake relative to total amount drug treated; format: functional, organism-based
Escherichia coli [42] = experiment: Antibacterial activity against Escherichia coli isolate 191 expressing qnr S1 gene assessed as residual bacterial survival at 50 mg/L after 24 hrs by twofold serial dilution method; format: functional; settings: isolate 191, 24 h
Klebsiella pneumoniae [43] = experiment: Antibacterial activity against Klebsiella pneumoniae isolate 92 assessed as drug uptake relative to total amount drug treated; format: functional, organism-based
Escherichia coli [44] = experiment: Antibacterial activity against Escherichia coli XL-1Blue after 24 hrs by twofold serial dilution method; format: functional
Escherichia coli [45] = experiment: Antibacterial activity against Escherichia coli isolate 21 after 24 hrs by twofold serial dilution method; format: functional
Escherichia coli [46] = experiment: Antibacterial activity against Escherichia coli isolate 21 assessed as residual bacterial survival at 50 mg/L after 24 hrs by twofold serial dilution method; format: functional; settings: isolate 21, 24 h

CC(=O)O[C@@H]1[C@@H](C)O[C@@H](c2ccc3c(c2O)[C@@H](O)[C@]24O[C@@]2(C3=O)[C@@]2(O)C(=O)C=C(C)C[C@@]2(O)C[C@@H]4O)C[C@H]1OC(=O)/C=C/C=C/C=C/C=C/C(=O)Nc1c(O)c2ccc(O)c(Cl)c2oc1=O [SIMOCYCLINONE D8]
survival at 50 µg/mL (Escherichia coli [1]): 9%
MIC50 (Escherichia coli [2]): 3.12 µg/mL (≈ 3.35 µM)
survival at 50 µg/mL (Escherichia coli [3]): > 90%
Drug uptake (Escherichia coli [4]): 7.53%
MIC50 (Escherichia coli [5]): 12 µg/mL (≈ 12.9 µM)
survival at 50 µg/mL (Escherichia coli [6]): 44%
survival at 50 µg/mL (Escherichia coli [7]): > 90%
survival at 50 µg/mL (Klebsiella pneumoniae [8]): > 90%
survival at 50 µg/mL (Escherichia coli [9]): > 90%
MIC50 (Klebsiella pneumoniae [10]): 50 µg/mL (≈ 53.6 µM)
survival at 50 µg/mL (Klebsiella pneumoniae [11]): > 90%
MIC50 (Escherichia coli [12]): > 100 µg/mL
Drug uptake (Klebsiella pneumoniae [13]): 60 pmol
Drug uptake (Klebsiella pneumoniae [14]): 1.3%
MIC50 (Escherichia coli [15]): > 100 µg/mL
MIC50 (Escherichia coli [16]): 0.78 µg/mL (≈ 0.837 µM)
survival at 50 µg/mL (Klebsiella pneumoniae [17]): 77%
survival at 50 µg/mL (Escherichia coli [18]): > 90%
survival at 50 µg/mL (Klebsiella pneumoniae [19]): > 90%
survival at 50 µg/mL (Staphylococcus aureus): 66%
survival at 50 µg/mL (Escherichia coli [20]): > 90%
survival at 50 µg/mL (Klebsiella pneumoniae [21]): > 90%
MIC50 (Escherichia coli [22]): 25 µg/mL (≈ 26.8 µM)
Drug uptake (Escherichia coli [23]): 180 pmol
Drug uptake (Escherichia coli [24]): 260 pmol
MIC50 (Klebsiella pneumoniae [25]): > 100 µg/mL
survival at 50 µg/mL (Klebsiella pneumoniae [26]): > 90%
Drug uptake (Escherichia coli [27]): 5.87%
survival at 50 µg/mL (Klebsiella pneumoniae [28]): > 90%
survival at 50 µg/mL (Escherichia coli [29]): > 90%
survival at 50 µg/mL (Escherichia coli [30]): > 90%
MIC50 (Escherichia coli [31]): >100%
survival at 50 µg/mL (Klebsiella pneumoniae [32]): 51%
survival at 50 µg/mL (Escherichia coli [33]): > 90%
survival at 50 µg/mL (Klebsiella pneumoniae [34]): > 90%
MIC50 (Escherichia coli [35]): > 100 µg/mL
Drug uptake (Klebsiella pneumoniae [36]): 40 pmol
MIC50 (Klebsiella pneumoniae [37]): 25 µg/mL (≈ 26.8 µM)
MIC50 (Klebsiella pneumoniae [38]): 50 µg/mL (≈ 53.6 µM)
survival at 50 µg/mL (Escherichia coli [39]): 41%
MIC50 (Klebsiella pneumoniae [40]): 100 µg/mL (≈ 107 µM)
Drug uptake (Escherichia coli [41]): 2.61%
survival at 50 µg/mL (Escherichia coli [42]): 56%
Drug uptake (Klebsiella pneumoniae [43]): 1.96%
MIC50 (Escherichia coli [44]): > 100 µg/mL
MIC50 (Escherichia coli [45]): > 100 µg/mL
survival at 50 µg/mL (Escherichia coli [46]): > 90%
